Data taken from ChEMBL document CHEMBL3792338, “Discovery of biaryls as RORγ inverse agonists by using structure-based design” (Bioorg Med Chem Lett, 2016).
Values after ≈ are worked out from the molar mass of the structure shown.

Columns and labels:
[1] = target: T1, Nuclear receptor ROR-gamma (Homo sapiens, UniProt P51449); assay: Inverse agonist activity at recombinant human GST-tagged ROR-gamma receptor ligand binding domain assessed as inhibition of receptor and co-activator TRAP220 interaction by FRET assay
T1 sequence (P51449 whole entry): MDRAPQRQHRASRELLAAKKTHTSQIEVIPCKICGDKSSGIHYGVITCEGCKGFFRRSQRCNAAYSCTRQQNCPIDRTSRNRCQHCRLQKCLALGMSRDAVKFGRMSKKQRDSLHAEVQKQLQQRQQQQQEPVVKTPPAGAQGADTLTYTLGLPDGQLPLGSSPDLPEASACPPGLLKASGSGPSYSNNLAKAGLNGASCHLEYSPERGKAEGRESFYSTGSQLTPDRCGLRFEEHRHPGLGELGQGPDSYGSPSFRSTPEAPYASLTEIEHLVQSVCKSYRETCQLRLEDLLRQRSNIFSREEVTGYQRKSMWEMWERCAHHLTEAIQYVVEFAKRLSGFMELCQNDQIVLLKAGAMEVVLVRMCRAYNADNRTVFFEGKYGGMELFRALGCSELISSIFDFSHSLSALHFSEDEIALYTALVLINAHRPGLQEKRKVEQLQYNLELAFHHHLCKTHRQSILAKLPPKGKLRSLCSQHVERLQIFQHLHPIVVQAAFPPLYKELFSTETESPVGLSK

[2] = target: Liver X receptor (Homo sapiens) (UniProt Q13133+P55055); assay: Agonist activity at LXR (unknown origin) at 10 uM; assay type: protein assay
[3] = Aqueous solubility of compound at pH 6.8; assay type: physicochemical
[4] = target: T2, Bile acid receptor (Homo sapiens) (UniProt Q96RI1); assay: Agonist activity at FXR (unknown origin) at 10 uM
T2 sequence (whole entry): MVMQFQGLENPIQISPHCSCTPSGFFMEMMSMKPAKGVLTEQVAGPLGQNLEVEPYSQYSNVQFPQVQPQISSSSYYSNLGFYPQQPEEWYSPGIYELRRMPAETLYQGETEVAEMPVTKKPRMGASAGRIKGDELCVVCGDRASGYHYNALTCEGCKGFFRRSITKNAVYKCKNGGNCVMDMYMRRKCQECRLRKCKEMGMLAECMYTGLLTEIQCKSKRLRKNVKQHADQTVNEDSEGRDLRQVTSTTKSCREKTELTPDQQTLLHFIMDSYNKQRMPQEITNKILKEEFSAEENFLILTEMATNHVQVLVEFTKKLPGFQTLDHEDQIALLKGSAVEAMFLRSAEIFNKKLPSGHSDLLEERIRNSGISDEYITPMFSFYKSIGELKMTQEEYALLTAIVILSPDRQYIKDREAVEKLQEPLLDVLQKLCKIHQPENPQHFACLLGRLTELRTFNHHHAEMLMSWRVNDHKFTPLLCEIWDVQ

[5] = target: T3, Nuclear receptor subfamily 1 group I member 2 (Homo sapiens, UniProt O75469); assay: Agonist activity at PXR (unknown origin) at 10 uM
T3 sequence (O75469 whole entry): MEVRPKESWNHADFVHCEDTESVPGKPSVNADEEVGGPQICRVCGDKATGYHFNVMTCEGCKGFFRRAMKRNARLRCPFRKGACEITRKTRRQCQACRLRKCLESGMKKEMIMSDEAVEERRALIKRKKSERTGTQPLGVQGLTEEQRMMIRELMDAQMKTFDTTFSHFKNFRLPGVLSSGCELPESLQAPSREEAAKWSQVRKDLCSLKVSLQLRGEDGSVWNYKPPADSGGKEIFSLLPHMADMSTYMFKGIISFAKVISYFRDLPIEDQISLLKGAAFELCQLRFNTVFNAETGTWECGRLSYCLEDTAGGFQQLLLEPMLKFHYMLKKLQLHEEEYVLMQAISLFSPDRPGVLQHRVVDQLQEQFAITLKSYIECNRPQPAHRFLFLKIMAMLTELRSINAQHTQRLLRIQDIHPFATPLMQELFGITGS

[6] = target: Cytochrome P450 3A4 (Homo sapiens, UniProt P08684); assay: Inhibition of CYP3A4 (unknown origin); assay type: ADME
[7] = target: T3, Nuclear receptor subfamily 1 group I member 2; assay: Agonist activity at PXR (unknown origin)
[8] = target: T4, Nuclear receptor ROR-beta (Homo sapiens, UniProt Q92753); assay: Inverse agonist activity at human ROR-beta transfected in HEK293T cells by Gal4 luciferase reporter gene assay; assay type: cell-based, HEK-293T
T4 sequence (Q92753 whole entry): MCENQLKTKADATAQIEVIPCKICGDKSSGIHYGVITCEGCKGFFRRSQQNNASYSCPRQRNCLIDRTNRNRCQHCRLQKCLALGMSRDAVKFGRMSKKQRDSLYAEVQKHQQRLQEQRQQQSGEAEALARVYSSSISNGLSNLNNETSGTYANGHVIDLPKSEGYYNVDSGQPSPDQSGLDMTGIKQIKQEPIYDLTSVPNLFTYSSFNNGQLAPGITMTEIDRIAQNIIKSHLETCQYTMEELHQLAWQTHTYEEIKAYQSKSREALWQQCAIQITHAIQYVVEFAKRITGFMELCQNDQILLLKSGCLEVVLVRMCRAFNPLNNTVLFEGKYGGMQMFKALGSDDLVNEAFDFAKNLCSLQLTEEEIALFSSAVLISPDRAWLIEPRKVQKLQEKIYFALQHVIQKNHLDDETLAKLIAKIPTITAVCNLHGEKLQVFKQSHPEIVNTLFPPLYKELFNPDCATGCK

[9] = target: T5, Nuclear receptor ROR-alpha (Homo sapiens, UniProt P35398); assay: Inverse agonist activity at human ROR-alpha transfected in HEK293T cells by Gal4 luciferase reporter gene assay; assay type: cell-based, HEK-293T
T5 sequence (P35398 whole entry): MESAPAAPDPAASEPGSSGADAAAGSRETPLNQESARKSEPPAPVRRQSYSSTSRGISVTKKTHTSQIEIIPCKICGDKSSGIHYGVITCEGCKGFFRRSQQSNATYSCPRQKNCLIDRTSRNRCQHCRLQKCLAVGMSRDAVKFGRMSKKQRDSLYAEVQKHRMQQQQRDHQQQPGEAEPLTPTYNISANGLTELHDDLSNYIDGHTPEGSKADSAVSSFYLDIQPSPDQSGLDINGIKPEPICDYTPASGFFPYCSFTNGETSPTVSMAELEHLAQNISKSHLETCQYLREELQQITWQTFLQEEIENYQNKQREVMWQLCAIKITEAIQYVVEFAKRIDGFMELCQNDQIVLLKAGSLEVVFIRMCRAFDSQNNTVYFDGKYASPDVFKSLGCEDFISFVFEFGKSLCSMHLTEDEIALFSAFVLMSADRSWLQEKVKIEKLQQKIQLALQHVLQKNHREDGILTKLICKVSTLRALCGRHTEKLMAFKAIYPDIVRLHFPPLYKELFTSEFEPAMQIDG

Cytochrome P450 3A4, sequence (P08684 whole entry): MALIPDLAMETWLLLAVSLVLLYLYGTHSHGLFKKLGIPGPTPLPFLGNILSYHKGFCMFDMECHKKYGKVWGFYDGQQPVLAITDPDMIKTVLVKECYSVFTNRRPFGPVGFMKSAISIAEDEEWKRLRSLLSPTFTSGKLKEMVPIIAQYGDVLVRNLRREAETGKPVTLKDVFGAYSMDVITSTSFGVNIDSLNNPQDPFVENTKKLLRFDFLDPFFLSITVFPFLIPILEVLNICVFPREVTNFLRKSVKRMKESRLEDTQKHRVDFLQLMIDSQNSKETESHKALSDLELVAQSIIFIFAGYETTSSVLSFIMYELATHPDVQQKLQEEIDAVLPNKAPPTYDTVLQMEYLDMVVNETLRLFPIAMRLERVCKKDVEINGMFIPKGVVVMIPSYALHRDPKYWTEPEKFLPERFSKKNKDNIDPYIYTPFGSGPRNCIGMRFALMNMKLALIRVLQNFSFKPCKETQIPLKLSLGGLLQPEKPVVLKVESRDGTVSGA

Row | SMILES | IC50 [1] [nM] | further results
1 | O=C(c1ccc(F)c(-c2ccc3c(c2)CCCN3C(=O)c2c(F)cccc2Cl)c1)N1CCCC1 | 1900 | 
2 | Cn1ccc2c(S(=O)(=O)N(CC(F)(F)F)c3ccc(C(O)(C(F)(F)F)C(F)(F)F)cc3)cccc21 | 72 | Activity [2]: 100%; solubility ([3]; aqueous, read-out: solubility): < 0.5 µg/mL; Activity [4]: 100%; Activity [5]: 100%
3 | Cc1cc2nccn2cc1-c1ccc(N(CC(F)(F)F)S(=O)(=O)c2cccc3c2ccn3C)cc1 | 2800 | 
4 | Cc1ccc(S(=O)(=O)Nc2ccc3c(c2)CCCN3C(=O)c2cccs2)cc1C | 1470 | 
5 | CNS(=O)(=O)c1cccc(-c2ccc3c(c2)CCCN3C(=O)c2c(F)cccc2Cl)c1 | 6400 | 
6 | NS(=O)(=O)c1cccc(-c2ccc3c(c2)CCCN3C(=O)c2c(F)cccc2Cl)c1 | 10000 | 
7 | NC(=O)c1ccccc1-c1ccc2c(c1)CCCN2C(=O)c1c(F)cccc1Cl | > 10000 | 
8 | Cc1ccc(S(=O)(=O)N(CC(F)(F)F)c2ccc3c(c2)CCCN3C(=O)c2cccs2)cc1C | 200 | 
9 | Cc1ccc(S(=O)(=O)N(CC(F)(F)F)c2ccc3c(c2)CCCN3C(=O)c2c(F)cccc2Cl)cc1C | 10 | inhibition (INH) [6]: Active; solubility ([3]; buffer): Insoluble; Activity [7]: Active
10 | NC(=O)c1ccc(Cl)c(-c2ccc3c(c2)CCCN3C(=O)c2c(F)cccc2Cl)c1 |  | EC50 [8]: 1100 nM; EC50 [9]: 390 nM; solubility ([3]; aqueous, read-out: solubility): 0.04 µg/mL (≈ 0.0902 µM)
11 | O=S(=O)(c1cccc(Cl)c1)N(CC(F)(F)F)c1ccc(C(O)(C(F)(F)F)C(F)(F)F)cc1 | 72 | Activity [2]: 100%; solubility ([3]; aqueous, read-out: solubility): < 0.5 µg/mL; Activity [4]: 100%; Activity [5]: 100%
12 | Cn1ccc2c(S(=O)(=O)N(CC(F)(F)F)c3ccc4c(c3)CCCN4C(=O)c3cccs3)cccc21 | 56 | 
13 | O=C(c1cc(F)cc(-c2ccc3c(c2)CCCN3C(=O)c2c(F)cccc2Cl)c1)N1CCOCC1 | 8100 | 

Now from value to compound, other results behind:

Row | IC50 [1] [nM] | SMILES | further results
14 | 3200 | CNC(=O)c1cccc(-c2ccc(N(CC(F)(F)F)S(=O)(=O)c3cccc4c3ccn4C)cc2)c1 | 
15 | 1500 | Cn1ccc2c(S(=O)(=O)N(CC(F)(F)F)c3ccc(-c4cccc(C(N)=O)c4)cc3)cccc21 | 
16 | > 10000 | CNC(=O)c1cccc(-c2ccc(N(CC(F)(F)F)S(=O)(=O)c3cccc(Cl)c3)cc2)c1 | 
17 | 3800 | NC(=O)c1cccc(-c2ccc(N(CC(F)(F)F)S(=O)(=O)c3cccc(Cl)c3)cc2)c1 | 
18 | 210 | Cc1cc(O)ccc1-c1ccc(N(CC(F)(F)F)S(=O)(=O)c2cccc3c2ccn3C)cc1 | 
19 | 6500 | Cc1cc(CO)ccc1-c1ccc(N(CC(F)(F)F)S(=O)(=O)c2cccc(Cl)c2)cc1 | 
20 | 520 | Cc1cc(O)ccc1-c1ccc(N(CC(F)(F)F)S(=O)(=O)c2cccc(Cl)c2)cc1 | 
21 | > 10000 | Cc1cc(C2(C(=O)O)CC2)ccc1-c1ccc(N(CC(F)(F)F)S(=O)(=O)c2cccc(Cl)c2)cc1 | 
22 | 7800 | CNC(=O)c1ccc(F)c(-c2ccc(N(CC(F)(F)F)S(=O)(=O)c3cccc(Cl)c3)cc2)c1 | 
23 | 520 | Cc1cc2nccn2cc1-c1ccc(N(CC(F)(F)F)S(=O)(=O)c2cccc(Cl)c2)cc1 | 
24 | 4200 | NC(=O)c1ccc(Cl)c(-c2ccc(N(CC(F)(F)F)S(=O)(=O)c3cccc(Cl)c3)cc2)c1 | 
25 | 4700 | CNC(=O)c1ccc(F)c(-c2ccc(N(CC(F)(F)F)S(=O)(=O)c3cccc4c3ccn4C)cc2)c1 | 
26 | 910 | Cc1cc(C2(C(=O)O)CC2)ccc1-c1ccc(N(CC(F)(F)F)S(=O)(=O)c2cccc3c2ccn3C)cc1 | 
27 | 630 | Cc1cc(CO)ccc1-c1ccc(N(CC(F)(F)F)S(=O)(=O)c2cccc3c2ccn3C)cc1 | 
